According to patent publication US10227337B2, “Evaluation probe for central nervous system permeability, evaluation method for central nervous system permeability, and screening method using an evaluation probe for central nervous system permeability” (CANON KABUSHIKI KAISHA, priority 2011, dated 2019):

How the values were obtained:
[1] = Measurement of fluorescence characteristics of dye compounds; format: physicochemical; settings: 5-μM solution in DMSO
Source text: 5-μM solutions of Dye compounds 1 to 46 in DMSO were each prepared and measured for its excitation wavelength and fluorescence emission wavelength with an FL4500 fluorescence spectrometer manufactured by Hitachi High-Technologies Corporation.

[2] = tested on: cranial nerve tissue (brain) of juvenile zebrafish; test: Example 3: brain fluorescence of juvenile zebrafish exposed to compound (23) probe liquid with or without MK571 and FTC; format: in vivo; settings: concluded from single versus combined MK571 and FTC
Protocol: A probe liquid 6 was obtained by changing the compound (8) used in the probe liquid 1 of Example 1 to the compound (23). Further, a probe liquid 7 was obtained by adding MK571 and FTC, each at 30 μM, as a transporter inhibitor.
4 mL of the probe liquid 6 and 7 and each of 20 juvenile zebrafish on 7 days post fertilization were each loaded into any well of a 6-well multiplate, and exposure was started. The zebrafish during exposure were each taken out of the well 60 minutes, 180 minutes and 360 minutes after the starting of the exposure, and in accordance with the same operation as in Example 1, fluorescence images of a cranial nerve tissue and a blood vessel on the zebrafish body side were captured and fluorescence intensities in the CNS tissue and the blood vessel were evaluated.

Row | Structure (SMILES) | Excitation wavelength λex [1] | Fluorescence wavelength λem [1] | transport by transporters (substrate property) [2]
1 | CCN1CCc2cc(/C=C3/SC(=S)N(CCC(=O)O)C3=O)ccc21 [Compound 8] | 510 nm | 597 nm | –
2 | CCN1c2ccc(/C=C3/SC(=S)N(CCCCCCCCCCC(=O)O)C3=O)cc2C2CCCC21 (centres unmarked) [Compound 46] | 516 nm | 585 nm | –
3 | CCN1C(=O)/C(=c2\s/c(=C/c3ccc4c(c3)C3CCCC3N4c3ccccc3)c(=O)n2CC(=O)O)SC1=S (centres unmarked) [Compound 29] | 525 nm | 610 nm | –
4 | CCN1C(=O)/C(=c2\s/c(=C/c3cc(Br)c4c(c3)C3CCCC3N4Cc3ccccc3)c(=O)n2CC(=O)O)SC1=S (centres unmarked) [Compound 37] | 525 nm | 616 nm | –
5 | CCN1C(=O)/C(=c2\s/c(=C/c3cc(Br)c4c(c3)C3CCCC3N4c3ccc(Br)cc3)c(=O)n2CC(=O)O)SC1=S (centres unmarked) [Compound 35] | 520 nm | 617 nm | –
6 | O=C(O)CCN1C(=O)/C(=C\c2ccc3c(c2)C2CCCC2N3Cc2ccccc2)SC1=S (centres unmarked) [Compound 3] | 510 nm | 584 nm | –
7 | C=CCN1C(=O)/C(=c2\s/c(=C/c3ccc4c(c3)C3CCCC3N4c3ccccc3)c(=O)n2CC(=O)O)SC1=S (centres unmarked) [Compound 42] | 543 nm | 636 nm | –
8 | CCN1CCc2cc(/C=C3/SC(=S)N(CC(=O)O)C3=O)ccc21 [Compound 19] | 511 nm | 594 nm | –
9 | CCN1C(=O)/C(=c2\s/c(=C/c3ccc4c(c3)C3CCCC3N4c3cccc(SC)c3)c(=O)n2CC(=O)O)SC1=S (centres unmarked) [Compound 33] | 536 nm | 632 nm | –
10 | CCN1C(=O)/C(=c2\s/c(=C/c3ccc4c(c3)C3CCCC3N4c3ccc(OC)cc3)c(=O)n2CC(=O)O)SC1=S (centres unmarked) [Compound 31] | 550 nm | 650 nm | –
11 | CCN1c2ccc(/C=C3/SC(=S)N(CCC(=O)O)C3=O)cc2CC1C (centres unmarked) [Compound 7] | 509 nm | 593 nm | –
12 | O=C(O)CCN1C(=O)/C(=C\c2cc(Br)c3c(c2)C2CCCC2N3c2ccc(Br)cc2)SC1=S (centres unmarked) [Compound 1] | 474 nm | 590 nm | –
13 | COc1ccc2cc(N3c4ccc(/C=C5/SC(=S)N(CCC(=O)O)C5=O)cc4C4CCCC43)ccc2c1 (centres unmarked) [Compound 5] | 521 nm | 646 nm | –
14 | CCN1C(=O)/C(=c2\s/c(=C/c3ccc4c(c3)CCN4CC)c(=O)n2CC(=O)O)SC1=S [Compound 38] | 541 nm | 642 nm | –
15 | CCN1C(=O)/C(=c2\s/c(=C/c3ccc4c(c3)C3CCCC3N4c3ccc4cc(OC)ccc4c3)c(=O)n2CC(=O)O)SC1=S (centres unmarked) [Compound 34] | 543 nm | 649 nm | –
16 | COc1ccc(N2c3ccc(/C=C4/SC(=S)N(CCC(=O)O)C4=O)cc3C3CCCC32)cc1 (centres unmarked) [Compound 2] | 521 nm | 634 nm | –
17 | CCN1C(=O)/C(=c2\s/c(=C/c3ccc4c(c3)CCN4c3ccccc3)c(=O)n2CC(=O)O)SC1=S [Compound 39] | 536 nm | 640 nm | –
18 | CCN1c2ccc(/C=C/C=C3/SC(=S)N(CCC(=O)O)C3=O)cc2C2CCCC21 (centres unmarked) [Compound 11] | 564 nm | 671 nm | –
19 | CCCCCN1C(=O)/C(=c2\s/c(=C/c3ccc4c(c3)C3CCCC3N4c3ccc(OC)cc3)c(=O)n2CC(=O)OCC)SC1=S (centres unmarked) [Compound 44] | 548 nm | 656 nm | –
20 | COc1ccc(N2c3ccc(/C=C4/SC(=S)N(CC(=O)O)C4=O)cc3C3CCCC32)cc1 (centres unmarked) [Compound 23] | 518 nm | 637 nm | transported by both of MRP and BCRP
21 | O=C(O)CN1C(=O)/C(=C\c2ccc3c(c2)CCN3c2ccccc2)SC1=S [Compound 22] | 505 nm | 612 nm | –
22 | CCn1c2ccccc2c2cc(/C=C3/SC(=S)N(CCC(=O)O)C3=O)ccc21 [Compound 9] | 452 nm | 540 nm | –

Row | Structure (SMILES) | Excitation wavelength λex [1] | Fluorescence wavelength λem [1] | transport by transporters (substrate property) [2]
23 | CCN1c2ccc(/C=C3/SC(=S)N(CC(=O)O)C3=O)cc2CC1C (centres unmarked) [Compound 16] | 510 nm | 590 nm | –
24 | CCn1c2ccccc2c2cc(/C=C3/SC(=S)N(CC(=O)O)C3=O)ccc21 [Compound 25] | 453 nm | 536 nm | –
25 | CCN1C(=O)/C(=c2\s/c(=C/c3ccc4c(c3)C3CCCC3N4c3ccc(SC)cc3)c(=O)n2CC(=O)O)SC1=S (centres unmarked) [Compound 32] | 544 nm | 658 nm | –
26 | CCOC(=O)CCN1C(=O)/C(=C\c2ccc3c(c2)C2CCCC2N3CC)SC1=S (centres unmarked) [Compound 27] | 518 nm | 590 nm | –
27 | CCN1c2ccc(/C=C3/SC(=S)N(CCCCCC(=O)O)C3=O)cc2C2CCCC21 (centres unmarked) [Compound 45] | 513 nm | 589 nm | –
28 | O=C(O)CN1C(=O)/C(=C\c2cc(Br)c3c(c2)C2CCCC2N3c2ccc(Br)cc2)SC1=S (centres unmarked) [Compound 21] | 476 nm | 580 nm | –
29 | CCCCCCCCN1C(=O)/C(=c2\s/c(=C/c3ccc4c(c3)C3CCCC3N4c3ccc(OC)cc3)c(=O)n2CC(=O)OCC)SC1=S (centres unmarked) [Compound 43] | 552 nm | 668 nm | –
30 | O=C(O)CCN1C(=O)/C(=C\c2ccc3c(c2)C2CCCC2N3c2ccccc2)SC1=S (centres unmarked) [Compound 4] | 502 nm | 604 nm | –
31 | COc1ccc2cc(N3c4ccc(/C=C5/SC(=S)N(CC(=O)O)C5=O)cc4C4CCCC43)ccc2c1 (centres unmarked) [Compound 26] | 525 nm | 646 nm | –
32 | CCN1c2ccc(/C=C3/SC(=S)N(CC(=O)O)C3=O)cc2C2CCCC21 (centres unmarked) [Compound 14] | 507 nm | 585 nm | –
33 | O=C(O)CN1C(=O)/C(=C\c2ccc3c(c2)C2CCCC2N3c2ccccc2)SC1=S (centres unmarked) [Compound 17] | 508 nm | 604 nm | –
34 | CCN1C(=O)/C(=c2\s/c(=C/c3ccc4c(c3)c3ccccc3n4CC)c(=O)n2CC(=O)O)SC1=S [Compound 40] | 494 nm | 551 nm | –
35 | CSc1ccc(N2c3ccc(/C=C4/SC(=S)N(CCC(=O)O)C4=O)cc3C3CCCC32)cc1 (centres unmarked) [Compound 12] | 518 nm | 647 nm | –
36 | CCN1c2ccc(/C=C3/SC(=S)N(CCC(=O)O)C3=O)cc2C2CCCC21 (centres unmarked) [Compound 13] | 513 nm | 587 nm | –
37 | O=C(O)CN1C(=O)/C(=C\c2ccc3c(c2)C2CCCC2N3Cc2ccccc2)SC1=S (centres unmarked) [Compound 20] | 506 nm | 581 nm | –
38 | C=CCN1C(=O)/C(=c2\s/c(=C/c3ccc4c(c3)C3CCCC3N4c3ccc(OC)cc3)c(=O)n2CC(=O)O)SC1=S (centres unmarked) [Compound 41] | 515 nm | 624 nm | –
39 | O=C(O)CN1C(=O)/C(=C\c2cc(Br)c3c(c2)C2CCCC2N3Cc2ccccc2)SC1=S (centres unmarked) [Compound 24] | 486 nm | 578 nm | –
40 | CCCN1c2ccc(/C=C3/SC(=S)N(CCC(=O)O)C3=O)cc2C2CCCC21 (centres unmarked) [Compound 10] | 519 nm | 592 nm | –
41 | CN1c2ccc(/C=C3/SC(=S)N(CCC(=O)O)C3=O)cc2C2CCCC21 (centres unmarked) [Compound 6] | 517 nm | 590 nm | –
42 | CCN1C(=O)/C(=c2\s/c(=C/c3ccc4c(c3)CC(C)N4CC)c(=O)n2CC(=O)O)SC1=S (centres unmarked) [Compound 36] | 541 nm | 640 nm | –
43 | CSc1cccc(N2c3ccc(/C=C4/SC(=S)N(CC(=O)O)C4=O)cc3C3CCCC32)c1 (centres unmarked) [Compound 18] | 509 nm | 604 nm | –
44 | CSc1ccc(N2c3ccc(/C=C4/SC(=S)N(CC(=O)O)C4=O)cc3C3CCCC32)cc1 (centres unmarked) [Compound 15] | 517 nm | 638 nm | –
